Molecules are shown by their SMILES.

The record followed here is patent publication US9896440B2, “Aryl substituted heterocyclyl sulfones” (GRÜNENTHAL GMBH, priority 2014, dated 2018).

This assay deals with T1, Human CaV2.2 channels (Homo sapiens, UniProt Q00975).
T1 construct: expressed in transfected cells; Kir2.3 also stably co-expressed
The experiment in a line: Fluorescence assay for CaV2.2 channels using potassium depolarization to induce channel opening (FLIPR, Fluo 4). The assay is classed as cell-based. The note with it: 30 mM KCl assay buffer (inactivated channel state), HEK293 cells; for inhibition at 3 µM: HEK293, 3 μM test compound, read-out: Activity Category: %-Inhib (CaV2.2) @3 μM @30 mM KCl; for Activity Category: %-Inhib (CaV2.2) @3 μM @30 mM KCl: 3 μM test compound. From the text:
In the process, the Ca^2+ influx is quantified in the FLIPR assay with the aid of a Ca^2+-sensitive dye (type Fluo-4, Molecular Probes Europe BV, Leiden, the Netherlands) in a fluorescent imaging plate reader (FLIPR 3, Molecular Devices, Sunnyvale, USA), as described hereinafter.
Human CaV2.2 channels were stably expressed in HEK293 cells together with alpha2-delta and beta subunits of voltage gated calcium channels. In addition, an inwardly rectifying potassium channel (Kir2.3) was stably expressed in these cells to augment control of the cell membrane potential by the concentration of extracellular potassium ions. Raise of the extracellular potassium concentration leads to depolarization of the membrane potential and thus regulates the voltage dependent state of CaV2.2 channels. For preparation, cells were seeded in black poly-D-lysine coated 96-well plates (Becton Dickinson, Biocoat 4640) in 100 μL medium [500 mL DMEM/F-12 plus Glutamax (Invitrogen 31331-093) plus 5.5 mL MEM NEAA 100× (Invitrogen 11140-035) plus 50 mL FBS decomplemented (Invitrogen 10270-106) plus 200 μg/mL Geneticin (Invitrogen 10131-027) plus 50 μg/mL Hygromycin B (Invitrogen 10687-010) plus 2 μg/mL Blasticidin (anti-bl5b Invivo-Gen) plus 0.2 μg/mL Puromycin (A 11138-03)] at a cell density of 30.000 cells per well. Plates were incubated at 37° C. (5% CO2) for 20 to 23 h. On the day of experiment medium was discarded and cells were loaded with Fluo 4 by addition of 100 μL of basic assay buffer (10 mM HEPES, 1 mM KCl, 149 mM NaCl, 0.8 mM CaCl2, 1.7 mM MgCl2, 10 mM Glucose, 0.1% BSA. pH 7.4) containing 2 μM Fluo 4 (Molecular Probes; F-14201), 0.01% pluronic acid (Molecular Probes; P-6866) and 2.5 mM probenecid (Molecular Probes; P36400). Cells were incubated in the dark at 25° C. for 60 min. Then dye containing buffer was discarded and 100 μL basic (1 mM KCl) or alternative (30 mM KCl) assay buffer was added. The alternative assay buffer contained altered concentrations of KCl (30 mM) and NaCl (120 mM) and was used in order to promote the inactivated channel state. After that 25 μL of basic or alternative assay buffer with or without test compound were added and cells were incubated again in the dark at 25° C. for 15 min. Fluorescence intensity was measured on a FLIPR 3 instrument (Molecular Devices Corp., Sunnyvale, Calif.) with excitation at 480 nm and emission at 535 nm. After continuously reading fluorescence for 30 sec, 50 μL of basic assay buffer containing 210 mM KCl (NaCl omitted) were added for depolarization. Peak fluorescent signal intensity was determined and the amplitude of the peak signal, normalized to base line, was used to measure channel inhibition by test compounds.

T1 sequence (Q00975 whole entry): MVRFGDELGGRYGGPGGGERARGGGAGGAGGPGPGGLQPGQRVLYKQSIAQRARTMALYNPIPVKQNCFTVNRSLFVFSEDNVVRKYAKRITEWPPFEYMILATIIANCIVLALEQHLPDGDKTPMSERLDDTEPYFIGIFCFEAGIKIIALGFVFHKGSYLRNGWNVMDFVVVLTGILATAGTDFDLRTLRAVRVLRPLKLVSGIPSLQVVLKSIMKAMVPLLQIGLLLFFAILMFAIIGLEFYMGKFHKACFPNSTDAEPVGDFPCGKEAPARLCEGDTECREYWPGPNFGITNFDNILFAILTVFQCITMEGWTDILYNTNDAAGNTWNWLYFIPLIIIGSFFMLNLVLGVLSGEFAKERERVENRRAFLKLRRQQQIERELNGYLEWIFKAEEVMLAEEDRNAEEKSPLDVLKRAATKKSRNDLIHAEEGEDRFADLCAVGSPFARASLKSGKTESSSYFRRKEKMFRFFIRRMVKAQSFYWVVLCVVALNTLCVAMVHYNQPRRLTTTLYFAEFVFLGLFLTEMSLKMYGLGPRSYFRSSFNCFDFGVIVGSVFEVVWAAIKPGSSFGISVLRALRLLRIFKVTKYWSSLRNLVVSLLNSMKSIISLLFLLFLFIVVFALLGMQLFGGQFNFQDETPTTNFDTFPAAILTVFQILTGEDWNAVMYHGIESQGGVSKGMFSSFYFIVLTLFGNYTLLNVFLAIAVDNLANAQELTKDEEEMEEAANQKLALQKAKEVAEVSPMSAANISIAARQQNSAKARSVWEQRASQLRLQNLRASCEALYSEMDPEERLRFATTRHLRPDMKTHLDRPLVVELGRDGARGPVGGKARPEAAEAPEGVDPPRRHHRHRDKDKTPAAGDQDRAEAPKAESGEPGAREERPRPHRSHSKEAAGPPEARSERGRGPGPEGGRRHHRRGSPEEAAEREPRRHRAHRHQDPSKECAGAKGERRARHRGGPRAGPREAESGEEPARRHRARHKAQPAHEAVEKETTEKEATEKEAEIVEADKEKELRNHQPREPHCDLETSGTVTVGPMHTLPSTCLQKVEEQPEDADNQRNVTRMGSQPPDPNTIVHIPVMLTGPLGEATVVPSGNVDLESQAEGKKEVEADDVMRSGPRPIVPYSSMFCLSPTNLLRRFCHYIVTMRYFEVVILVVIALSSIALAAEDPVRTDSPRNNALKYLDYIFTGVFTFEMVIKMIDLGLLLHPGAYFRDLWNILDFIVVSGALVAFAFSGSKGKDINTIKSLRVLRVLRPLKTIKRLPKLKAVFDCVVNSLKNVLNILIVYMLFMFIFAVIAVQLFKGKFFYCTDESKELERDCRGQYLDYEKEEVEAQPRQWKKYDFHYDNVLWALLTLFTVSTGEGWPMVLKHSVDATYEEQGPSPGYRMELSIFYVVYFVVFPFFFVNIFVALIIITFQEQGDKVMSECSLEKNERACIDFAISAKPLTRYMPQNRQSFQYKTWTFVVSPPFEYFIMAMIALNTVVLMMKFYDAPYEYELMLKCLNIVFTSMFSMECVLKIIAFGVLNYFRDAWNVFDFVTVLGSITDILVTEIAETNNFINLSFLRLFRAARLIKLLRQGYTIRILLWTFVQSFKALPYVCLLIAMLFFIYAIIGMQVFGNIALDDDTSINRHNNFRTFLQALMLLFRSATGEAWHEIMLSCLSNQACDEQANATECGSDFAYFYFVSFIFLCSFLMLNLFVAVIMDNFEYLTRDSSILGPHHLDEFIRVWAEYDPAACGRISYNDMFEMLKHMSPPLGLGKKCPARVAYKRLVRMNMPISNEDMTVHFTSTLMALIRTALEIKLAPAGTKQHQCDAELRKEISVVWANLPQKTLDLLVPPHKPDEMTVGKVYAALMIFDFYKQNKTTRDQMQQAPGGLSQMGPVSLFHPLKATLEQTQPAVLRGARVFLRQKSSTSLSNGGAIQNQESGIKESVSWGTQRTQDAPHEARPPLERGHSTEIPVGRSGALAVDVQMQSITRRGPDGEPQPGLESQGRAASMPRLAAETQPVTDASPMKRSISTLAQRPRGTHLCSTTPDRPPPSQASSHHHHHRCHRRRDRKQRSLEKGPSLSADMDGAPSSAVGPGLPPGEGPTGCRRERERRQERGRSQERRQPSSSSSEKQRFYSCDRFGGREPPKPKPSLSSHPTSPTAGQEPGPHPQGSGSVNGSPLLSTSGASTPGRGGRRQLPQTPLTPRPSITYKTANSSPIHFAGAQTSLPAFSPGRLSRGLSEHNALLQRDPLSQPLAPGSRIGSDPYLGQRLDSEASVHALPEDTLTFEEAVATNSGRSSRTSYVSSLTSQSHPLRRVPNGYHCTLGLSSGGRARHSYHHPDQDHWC

Regarding `Cc1cc(C2CC(C)(S(=O)(=O)c3cccc(C(F)(F)F)c3)CCO2)ccc1S(C)(=O)=O` (centres unmarked) [SC-206, 4-Methyl-2-(3-methyl-4-methylsulfonyl-phenyl)-4-[[3-(trifluoromethyl)phenyl]sulfonyl]-tetrahydro-pyran], the inhibition at 3 µM was above 95%. For the compound `CC1(S(=O)(=O)c2cccc(C(F)(F)F)c2)CCOC(c2ccc(S(C)(=O)=O)c(F)c2)C1` (centres unmarked) [SC-208, 2-(3-Fluoro-4-methylsulfonyl-phenyl)-4-methyl-4-[[3-(trifluoromethyl)phenyl]sulfonyl]-tetrahydro-pyran], the inhibition at 3 µM was above 95%.

Turning to `CC1(S(=O)(=O)c2cccc(C(F)(F)F)c2)CCOC(c2ccc(S(C)(=O)=O)c(F)c2)C1` (centres unmarked) [SC-209, 2-(3-Fluoro-4-methylsulfonyl-phenyl)-4-methyl-4-[[3-(trifluoromethyl)phenyl]sulfonyl]-tetrahydro-pyran], the “Activity Category: %-Inhib (CaV2.2) @3 μM @30 mM KCl” value (“Activity Category: %-Inhib” below) is “B (%-Inhibition >75% up to ≦95%)”.

As to `Cc1ccc(C2CC(C)(S(=O)(=O)c3cccc(C(F)(F)F)c3)CCO2)cc1S(C)(=O)=O` (centres unmarked) [SC-210, 4-Methyl-2-(4-methyl-3-methylsulfonyl-phenyl)-4-[[3-(trifluoromethyl)phenyl]sulfonyl]-tetrahydro-pyran], the inhibition at 3 µM was above 95%. On to `CC1(S(=O)(=O)c2cccc(C(F)(F)F)c2)CCOC(c2ccc(F)c(S(C)(=O)=O)c2)C1` (centres unmarked) [SC-212, 2-(4-Fluoro-3-methylsulfonyl-phenyl)-4-methyl-4-[[3-(trifluoromethyl)phenyl]sulfonyl]-tetrahydro-pyran], for which the inhibition at 3 µM is above 95%. For the compound `CC1(S(=O)(=O)c2cccc(C(F)(F)F)c2)CCOC(c2ccc(F)c(S(C)(=O)=O)c2)C1` (centres unmarked) [SC-213, 2-(4-Fluoro-3-methylsulfonyl-phenyl)-4-methyl-4-[[3-(trifluoromethyl)phenyl]sulfonyl]-tetrahydro-pyran], the “Activity Category: %-Inhib” value is recorded as “B (%-Inhibition >75% up to ≦95%)”. Take `CN(C)CC1(S(=O)(=O)c2cccc(C(F)(F)F)c2)CCOC(c2ccc(Cl)cc2)C1` (centres unmarked) [SC-214, [[2-(4-Chlorophenyl)-4-[[3-(trifluoromethyl)phenyl]sulfonyl]-tetrahydro-pyran-4-yl]-methyl]-dimethyl-amine]: the “Activity Category: %-Inhib” value is “A (%-Inhibition >95%)”. Take `CN(C)CC1(S(=O)(=O)c2cccc(C(F)(F)F)c2)CCOC(c2ccc(Cl)cc2)C1` (centres unmarked) [SC-215, [[2-(4-Chlorophenyl)-4-[[3-(trifluoromethyl)phenyl]sulfonyl]-tetrahydro-pyran-4-yl]-methyl]-dimethyl-amine]: the “Activity Category: %-Inhib” value is reported as “C (%-Inhibition >40% up to ≦75%)”.

As for `COCC1(S(=O)(=O)c2cccc(C(F)(F)F)c2)CCOC(c2ccc(Cl)cc2)C1` (centres unmarked) [SC-216, 2-(4-Chlorophenyl)-4-(methoxymethyl)-4-[[3-(trifluoromethyl)phenyl]sulfonyl]-tetrahydro-pyran], the “Activity Category: %-Inhib” value was “B (%-Inhibition >75% up to ≦95%)”. Turning to `COCC1(S(=O)(=O)c2cccc(C(F)(F)F)c2)CCOC(c2ccc(Cl)cc2)C1` (centres unmarked) [SC-217, 2-(4-Chlorophenyl)-4-(methoxymethyl)-4-[[3-(trifluoromethyl)phenyl]sulfonyl]-tetrahydro-pyran], the “Activity Category: %-Inhib” value is recorded as “C (%-Inhibition >40% up to ≦75%)”. Turning to `CC1(S(=O)(=O)c2cccc(C(F)(F)F)c2)CCOC(c2ccc(S(C)(=O)=O)cc2Cl)C1` (centres unmarked) [SC-218, 2-(2-Chloro-4-methylsulfonyl-phenyl)-4-methyl-4-[[3-(trifluoromethyl)phenyl]sulfonyl]-tetrahydro-pyran], the inhibition at 3 µM is above 95%. Consider `CC1(S(=O)(=O)c2cccc(C(F)(F)F)c2)CCOC(c2cccc(S(C)(=O)=O)c2)C1` (centres unmarked) [SC-220, 4-Methyl-2-(3-methylsulfonyl-phenyl)-4-[[3-(trifluoromethyl)phenyl]sulfonyl]-tetrahydro-pyran], for which the inhibition at 3 µM was 75 to 95%. As to `CC1(S(=O)(=O)c2cccc(C(F)(F)F)c2)CCOC(c2ccccc2S(C)(=O)=O)C1` (centres unmarked) [SC-222, 4-Methyl-2-(2-methylsulfonyl-phenyl)-4-[[3-(trifluoromethyl)phenyl]sulfonyl]-tetrahydro-pyran], the “Activity Category: %-Inhib” value is listed as “A (%-Inhibition >95%)”.

As for `CC1(S(=O)(=O)c2cccc(C(F)(F)F)c2)CCOC(c2ccccc2S(C)(=O)=O)C1` (centres unmarked) [SC-223, 4-Methyl-2-(2-methylsulfonyl-phenyl)-4-[[3-(trifluoromethyl)phenyl]sulfonyl]-tetrahydro-pyran], the “Activity Category: %-Inhib” value is “C (%-Inhibition >40% up to ≦75%)”.

As to `Cc1cc(Cl)ccc1C1CC(C)(S(=O)(=O)c2cccc(C(F)(F)F)c2)CCO1` (centres unmarked) [SC-224, 2-(4-Chloro-2-methyl-phenyl)-4-methyl-4-[[3-(trifluoromethyl)phenyl]sulfonyl]-tetrahydro-pyran], the inhibition at 3 µM was in the range of 75 to 95%. As for `Cc1cc(Cl)ccc1C1CC(C)(S(=O)(=O)c2cccc(C(F)(F)F)c2)CCO1` (centres unmarked) [SC-225, 2-(4-Chloro-2-methyl-phenyl)-4-methyl-4-[[3-(trifluoromethyl)phenyl]sulfonyl]-tetrahydro-pyran], the “Activity Category: %-Inhib” value is listed as “A (%-Inhibition >95%)”. For the compound `COc1cc(C2CC(C)(S(=O)(=O)c3cccc(C(F)(F)F)c3)CCO2)ccc1Cl` (centres unmarked) [SC-226, 2-(4-Chloro-3-methoxy-phenyl)-4-methyl-4-[[3-(trifluoromethyl)phenyl]sulfonyl]-tetrahydro-pyran], the inhibition at 3 µM was above 95%. As for `CC1(S(=O)(=O)c2cccc(C(F)(F)F)c2)CCOC(c2ccc(F)c(Cl)c2)C1` (centres unmarked) [SC-228, 2-(3-Chloro-4-fluoro-phenyl)-4-methyl-4-[[3-(trifluoromethyl)phenyl]sulfonyl]-tetrahydro-pyran], the inhibition at 3 µM was above 95%.

For the compound `CCC1(S(=O)(=O)c2cccc(C(F)(F)F)c2)CCOC(c2ccc(Cl)cc2)C1` (centres unmarked) [SC-230, 2-(4-Chlorophenyl)-4-ethyl-4-[[3-(trifluoromethyl)phenyl]sulfonyl]-tetrahydro-pyran], the inhibition at 3 µM was above 95%. Regarding `CCC1(S(=O)(=O)c2cccc(C(F)(F)F)c2)CCOC(c2ccc(Cl)cc2)C1` (centres unmarked) [SC-231, 2-(4-Chlorophenyl)-4-ethyl-4-[[3-(trifluoromethyl)phenyl]sulfonyl]-tetrahydro-pyran], the “Activity Category: %-Inhib” value was “B (%-Inhibition >75% up to ≦95%)”. In the case of `CC1(S(=O)(=O)c2cccc(C(F)(F)F)c2)CCOC(c2ccc(C(F)(F)F)cc2S(C)(=O)=O)C1` (centres unmarked) [SC-232, 4-Methyl-2-[2-methylsulfonyl-4-(trifluoromethyl)-phenyl]-4-[[3-(trifluoromethyl)phenyl]sulfonyl]-tetrahydro-pyran], the inhibition at 3 µM is above 95%.

For the compound `CC1(S(=O)(=O)c2cccc(C(F)(F)F)c2)CCOC(c2ccc(S(C)(=O)=O)c(C(F)(F)F)c2)C1` (centres unmarked) [SC-235, 4-Methyl-2-[4-methylsulfonyl-3-(trifluoromethyl)-phenyl]-4-[[3-(trifluoromethyl)phenyl]sulfonyl]-tetrahydro-pyran], the inhibition at 3 µM was above 95%. Consider `CC1(S(=O)(=O)c2cccc(C(F)(F)F)c2)CCOC(c2ccc(Cl)c(S(C)(=O)=O)c2)C1` (centres unmarked) [SC-237, 2-(4-Chloro-3-methylsulfonyl-phenyl)-4-methyl-4-[[3-(trifluoromethyl)phenyl]sulfonyl]-tetrahydro-pyran], for which the inhibition at 3 µM is above 95%.
